Results on 13 compounds are retold here after patent publication US20200399238A1, “THERAPEUTIC AURONES” (MIDDLE TENNESSEE STATE UNIVERSITY, priority 2016, published 2020).

Each structure is given as a SMILES string. Where two headings read alike, the source gives them in different places.

The test system of assay [1] is Trypanosoma brucei brucei 427 cells. Put plainly: T. brucei culture and assay (PrestoBlue). The class given is cell-based.
Assay [2] deals with Leishmania amazonensis promastigotes expressing beta-lactamase. Put plainly: microbe, parasite or virus in culture. The class given is cell-based. How it is done: Leishmania amazonensis promastigotes expressing beta-lactamase (Buckner et al., Am. J. Trop. Med. Hyg. 72 (2005) 600-605. doi:72/5/600 [pii]) were cultured in RPMI supplemented with 10% fetal calf serum and 1% pen-strep-glut solution (Sigma) at 27° C. Stationary phase promastigotes were adjusted in fresh media, treated with compounds, and incubated at 37° C. At 24 hours, 100 uL of cultures was added to 50 uL of the CellTiter Glo® solution. Luminescence readings were taken with a spectrophotometer and used to calculate inhibition.

Assay [3] concerns Trypanosoma cruzi Tulahuen cells expressing beta-galactosidase. Put plainly: T. cruzi intracellular assay (beta-galactosidase, L6 host cells).
Assay [4] concerns rat skeletal muscle cell line, L6. Put plainly: cells. The class given is cell-based. As to the method: Cells were maintained in high glucose DMEM obtained from HyClone Laboratories (Logan, Utah) and supplemented with FCS and P/S at the same concentrations used for parasite culture. Cells were passaged every 3-4 days and maintained in a 37° C. humidified incubator in an atmosphere of 5% CO2. For assays. cells were detached, counted using a hemocytometer, and adjusted using fresh media to deliver 5×10^3 cells per well (90 μL) in black walled, flat clear bottom 96-well microtiter plates. After 3 h incubation for attachment, compounds diluted in culture medium were added (10 μL) to triplicate wells. Positive controls (cells treated with podophyllotoxin (Sigma, St. Louis, Mo.)), negative controls (untreated cells), solvent controls (DMSO) and media blanks were included on each plate. Following incubation for 71.5 h, 11 μL of PrestoBlue was added into each well.

Where [5] appears, read: Trypanosoma brucei, Table 1, mean of 2(+) independent trials, read-out: IC50 T. brucei.
Where [6] appears, read: Trypanosoma brucei, read-out: T. brucei IC50 dose.
Where [7] appears, read: Leishmania amazonensis, read-out: IC50 L. amaz.
Setting [8] is: Trypanosoma cruzi, TULAHUEN, read-out: IC50 T. cruzi, Table 1, intracellular assay, mean of 2(+) trials (^c one trial).
Where [9] appears, read: Trypanosoma cruzi, TULAHUEN, read-out: IC50 T. cruzi, Table 2, intracellular assay, mean of 2(+) independent trials.
The mark [10] stands for this setting: Trypanosoma cruzi, TULAHUEN, read-out: IC50 TC-I, Table 3B, weighted means of two or more independent trials.
[11] abbreviates: Rattus norvegicus, Table 1, read-out: IC50 Toxicity (L6).
Where [12] appears, read: Rattus norvegicus, Table 3B, weighted means of two or more independent trials, read-out: IC50 L6.
[13] abbreviates: Table 2, mean of 2(+) independent trials, read-out: IC50 T. brucei.
The mark [14] stands for this setting: Table 2, L6 IC50 / L. amazonensis IC50.
[15] abbreviates: Table 2, L6 mammalian cells, read-out: IC50 Toxicity (L6).
Setting [16] is: Table 1, intracellular T. cruzi IC50.
Where [17] appears, read: Table 3A, estimated from highest L6 dose tested where no L6 IC50.
[18] abbreviates: Trypanosoma cruzi, TULAHUEN, read-out: IC50 TC-I, Table 3A, weighted means of two or more independent trials.
The mark [19] stands for this setting: Rattus norvegicus, Table 3A, weighted means of two or more independent trials, read-out: IC50 L6.
Setting [20] is: Table 2, L6 IC50 / T. brucei IC50.
Where [21] appears, read: Table 2, L6 IC50 / T. cruzi IC50 (intracellular assay).
Where [22] appears, read: Table 3C, estimated from highest L6 dose tested where L6 IC50 not reached.

In general, IC50 refers to the point on the concentration scale where inhibition reaches its midpoint. Take `O=C1/C(=C/c2ccco2)Oc2ccccc21` [Aurone 2023]: the half-inhibitory concentration (IC50) in assay [1] (Trypanosoma brucei, read-out: IC50 TB) is > 50 µM; in assay [1] (setting [5]) it was > 50 µM; in assay [1] (setting [6]) it was > 50 µM; in assay [2] (setting [7]) it was < 1 µM; in assay [3] (setting [8]), 6.97 µM; in assay [3] (setting [9]), 6.97 µM. The half-inhibitory concentration (IC50) in assay [3] (setting [10]) is 6.97 µM; in assay [3] (Trypanosoma cruzi, TULAHUEN, read-out: T. cruzi IC50 dose) it was < 10 µM; in assay [4] (setting [11]), > 100 µM; in assay [4] (setting [12]), > 100 µM.

In the case of `O=C1/C(=C/c2ncc[nH]2)Oc2ccccc21` [Aurone 2026, (Z)-2-((1H-imidazol-2-yl)methylene)benzofuran-3(2H)-one], in assay [1], the “selectivity for T. brucei (L6/Tb)” value was > 6.22. For the same compound, the concentration for half-maximal inhibition (IC50) was 16.1 µM in assay [1] (setting [5]); 16.1 µM in assay [1] (setting [6]); < 1 µM in assay [2] (setting [7]); 20.9 µM in assay [3] (setting [8]); 20.9 µM in assay [3] (setting [9]); 20.9 µM in assay [3] (setting [10]). Moreover, the concentration for half-maximal inhibition (IC50) in assay [4] (setting [11]) and in assay [4] (setting [12]) was > 100 µM each time.

Turning to `O=C1/C(=C/c2ccc(Br)cc2)Oc2cc(O)ccc21` [Aurone 2905, (Z)-2-(4-bromobenzylidene)-6-hydroxybenzofuran-3(2H)-one], the IC50 is > 50 µM in assay [1] (setting [5]), 39 µM in assay [2] (setting [7]), > 50 µM in assay [3] (setting [8]) and > 100 µM in assay [4] (setting [11]).

Turning to `O=C1/C(=C/c2ccc[nH]2)Oc2cc(O)ccc21` [Aurone 2906, (Z)-2-((1H-pyrrol-2-yl)methylene)-6-hydroxybenzofuran-3(2H)-one], the 50% inhibitory concentration (IC50) in assay [1] (setting [5]) is 34.6 µM; in assay [2] (setting [7]), 19.9 µM; in assay [3] (setting [8]), > 50 µM; in assay [4] (setting [11]), > 100 µM.

`O=C1/C(=C/c2ccc(C(F)(F)F)cc2)Oc2cc(O)ccc21` [Aurone 2909, (Z)-6-hydroxy-2-(4-(trifluoromethyl)benzylidene)benzofuran-3(2H)-one]: the IC50 was > 50 µM in assay [1] (setting [13]); > 50 µM in assay [1] (setting [5]); 3.97 µM in assay [2] (setting [7]); > 50 µM in assay [3] (setting [8]); > 50 µM in assay [3] (setting [9]); > 100 µM in assay [4] (setting [11]). Besides, in assay [4] (setting [15]), the IC50 is > 100 µM. Also, the “Selectivity L6/La” value in assay [2] (Table 1) and in assay [2] (setting [14]) was >25.19 in each case.

As to `COc1ccc(/C=C2\Oc3cc(O)ccc3C2=O)cc1O` [Aurone 2911, (Z)-6-hydroxy-2-(3-hydroxy-4-methoxybenzylidene)benzofuran-3(2H)-one], the IC50 is > 50 µM in assay [1] (setting [5]); 6.51 µM in assay [2] (setting [7]); > 50 µM in assay [3] (setting [8]); > 50 µM in assay [3] (setting [9]); 52.6 µM in assay [4] (setting [11]).

Regarding `COc1ccc(/C=C2\Oc3cc(O)ccc3C2=O)c(OC)c1OC` [Aurone 2912, (Z)-6-hydroxy-2-(2,3,4-trimethoxybenzylidene)benzofuran-3(2H)-one], the IC50 was > 50 µM in assay [1] (setting [5]), 25.7 µM in assay [2] (setting [7]), > 50 µM in assay [3] (setting [8]) and > 100 µM in assay [4] (setting [11]).

In the case of `O=C1/C(=C/[c-]2cccc2)Oc2ccccc21.[Fe+2].c1cc[cH-]c1` [Aurone 3001], the IC50 in assay [1] (Table 1, mean of 2(+) independent trials, read-out: IC50 T. brucei) was > 50 µM; in assay [1] (setting [13]), > 50 µM; in assay [1] (Table 3C, weighted means of two or more independent trials, read-out: IC50 TB) it was > 50 µM; in assay [2] (Table 1, mean of 2(+) trials, ^c value from one trial, read-out: IC50 L. amaz.), < 1 µM; in assay [2] (Table 2, mean of 2(+) independent trials, read-out: IC50 L. amaz.) it was < 1 µM; in assay [3] (read-out: IC50 T. cruzi, Table 1, intracellular assay, mean of 2(+) trials (^c one trial)), > 50 µM. The 50% inhibitory concentration (IC50) in assay [3] (read-out: IC50 T. cruzi, Table 2, intracellular assay, mean of 2(+) independent trials) was > 50 µM; in assay [3] (read-out: IC50 TC-I, Table 3C, intracellular T. cruzi, weighted means of two or more independent trials), > 50 µM; in assay [4] (Table 1, read-out: IC50 Toxicity (L6)), > 100 µM; in assay [4] (setting [15]) it was > 100 µM; in assay [4] (Table 3C, weighted means of two or more independent trials, read-out: IC50 L6), > 100 µM. For the same compound, in assay [2] (setting [14]), the “Selectivity L6/La” value was >100.

Regarding `N#Cc1ccccc1/C=C1\Oc2ccccc2C1=O` [Aurone 3007, (Z)-2-((3-oxobenzofuran-2(3H)-ylidene)methyl)benzonitrile], the half-maximal inhibitory concentration (IC50) in assay [1] (setting [5]) is > 50 µM; in assay [2] (setting [7]) it was 17.6 µM; in assay [3] (setting [8]), 46.6 µM; in assay [3] (setting [18]) it was 46.6 µM; in assay [4] (setting [11]), > 100 µM; in assay [4] (setting [19]), > 100 µM. In assay [2] (Table 1), the “Selectivity L6/La” value is recorded as >5.69. Besides, the “Selectivity L6/Tc” value in assay [3] (setting [16]) is reported as >2.14. Besides, the “Selectivity L6/TC-I” value in assay [3] (setting [17]) is given as >2.14.

`COc1ccc(/C=C2\Oc3ccccc3C2=O)cc1` [Aurone 6601, (Z)-2-(4-methoxybenzylidene)benzofuran-3(2H)-one]: the “Selectivity L6/Tb” value in assay [1] (Table 1), in assay [1] (setting [20]) and in assay [1] (setting [17]) was >2.48 in each case. For the same compound, the IC50 in assay [1] (setting [5]) was 40.3 µM; in assay [2] (setting [7]), 3.3 µM; in assay [3] (setting [8]), 10.8 µM; in assay [3] (setting [9]), 10.8 µM; in assay [3] (setting [18]) it was 10.8 µM; in assay [4] (setting [11]) it was > 100 µM. Further, the IC50 in assay [4] (setting [19]) and in assay [4] (setting [15]) was > 100 µM each time. Also, the “Selectivity L6/La” value in assay [2] (Table 1) and in assay [2] (setting [14]) was >30.30 throughout. In addition, the “Selectivity L6/Tc” value in assay [3] (setting [16]) and in assay [3] (setting [21]) was >9.28 in each case. In addition, the “Selectivity L6/TC-I” value in assay [3] (setting [17]) is recorded as >9.28.

As to `O=C1/C(=C/c2ccccc2)Oc2ccccc21` [Aurone 6615, (Z)-2-benzylidenebenzofuran-3(2H)-one], the “Selectivity L6/Tb” value in assay [1] (Table 1), in assay [1] (setting [20]) and in assay [1] (setting [17]) was 8.22 in each case. Besides, the 50% inhibitory concentration (IC50) in assay [1] (setting [5]) worked out at 40.1 µM; in assay [2] (setting [7]), 4.13 µM; in assay [3] (setting [8]) it was 15.8 µM; in assay [3] (setting [9]), 15.8 µM; in assay [3] (setting [18]), 15.8 µM; in assay [4] (setting [11]), 329 µM. In assay [4] (setting [19]), the IC50 stood at 329 µM. Besides, in assay [2] (Table 1), the “Selectivity L6/La” value is 79.77. Also, the “Selectivity L6/Tc” value in assay [3] (setting [16]) and in assay [3] (setting [21]) was 20.88 throughout. The “Selectivity L6/TC-I” value in assay [3] (setting [17]) is 20.88.

As for `O=C1/C(=C/c2ccc(/C=C3\Oc4ccccc4C3=O)cc2)Oc2ccccc21` [Aurone 6617, (2Z,2′Z)-2,2′-(1,4-phenylenebis(methanylylidene))bis(benzofuran-3(2H)-one)], the “Selectivity L6/Tb” value in assay [1] (Table 1), in assay [1] (setting [20]) and in assay [1] (setting [22]) was >11.31 in each case. The IC50 was 35.4 µM in assay [1] (setting [5]); 3.62 µM in assay [2] (setting [7]); 39.1 µM in assay [3] (setting [8]); 39.1 µM in assay [3] (setting [9]); 39.1 µM in assay [3] (Trypanosoma cruzi, TULAHUEN, read-out: IC50 TC-I, Table 3C, intracellular T. cruzi, weighted means of two or more independent trials); > 400 µM in assay [4] (setting [11]). Moreover, the IC50 in assay [4] (Rattus norvegicus, Table 3C, weighted means of two or more independent trials, read-out: IC50 L6) is > 400 µM; in assay [4] (setting [15]), > 400 µM. Further, the “Selectivity L6/La” value in assay [2] (Table 1) and in assay [2] (setting [14]) was >110.50 in each case. Besides, the “Selectivity L6/Tc” value in assay [3] (setting [16]) and in assay [3] (setting [21]) was >10.22 throughout. Also, the “Selectivity L6/TC-I” value in assay [3] (setting [22]) was >10.22.

As to `COc1ccc(/C=C2\Oc3cc(O)ccc3C2=O)cc1` [Aurone 6620, (Z)-6-hydroxy-2-(4-methoxybenzylidene)benzofuran-3(2H)-one], the “Selectivity L6/Tb” value in assay [1] (Table 1) and in assay [1] (setting [20]) was >100 each time. For the same compound, the IC50 in assay [1] (setting [13]) was < 1 µM; in assay [1] (setting [5]), < 1 µM; in assay [2] (setting [7]), < 1 µM; in assay [2] (Leishmania amazonensis, read-out: IC50 L. amaz. (footnote c: value obtained from one trial)), < 1 µM; in assay [3] (setting [8]), 35.1 µM; in assay [3] (setting [9]), 35.1 µM. Moreover, the 50% inhibitory concentration (IC50) in assay [4] (setting [11]) and in assay [4] (setting [15]) was > 100 µM throughout. The “Selectivity L6/La” value in assay [2] (Table 1) and in assay [2] (setting [14]) was >100 each time. The “Selectivity L6/Tc” value in assay [3] (setting [16]) and in assay [3] (setting [21]) was >2.85 throughout.
